Laboratory results from the supplement of paper PMC10883282.
± gives the standard deviation of the averaged measurements.

How the values were obtained:
Assay in all cases: relative viability vs DMSO control (72 h) (fraction); higher = more viable cells
SW684 = system: SW684
Procedure, shortened: (§1)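 Sarcoma cell lines were seeded in 384-well plates at densities chosen for 80–90% confluence, then 24 h later given 2.5 µl of serially diluted compound drawn from source plates spanning 10 mM to 0.0002 mM. They were held 72 h at 37 °C, 5% CO2, with 0.1% DMSO vehicle and a 5 µM positive control included. Relative viability was read with ATPLite as percent growth and averaged over up to triplicate wells. Rescaling placed full at 1 and none at 0.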

A204 = system: A204
Procedure, shortened: as §1

SK-ES-1 = system: SK-ES-1
Procedure, shortened: as §1

G401 = system: G401
Procedure, shortened: as §1

SK-LMS-1 = system: SK-LMS-1
Procedure, shortened: as §1

HS729 = system: HS729
Procedure, shortened: as §1

SW872 = system: SW872
Procedure, shortened: as §1

MES-SA = system: MES-SA
Procedure, shortened: as §1

SYO-1 = system: SYO-1
Procedure, shortened: as §1

SW1353 = system: SW1353
Procedure, shortened: as §1

SW982 = system: SW982
Procedure, shortened: as §1

KHOS-240S = system: KHOS-240S
Procedure, shortened: as §1

`CC#CC(=O)N1CCC[C@H]1c1nc(-c2ccc(C(=O)Nc3ccccn3)cc2)c2c(N)nccn12` [Acalabrutinib] showed a relative viability (SW684; 0.00017 µM) of 1.11 ± 0.017, a relative viability (SW684; 0.00051 µM) of 1.14 ± 0.023 and a relative viability (SW684; 0.00152 µM) of 1.09 ± 0.071. For the same compound, the relative viability (SW684; 0.00457 µM) was 1.13 ± 0.039, the relative viability (SW684; 0.01372 µM) was 1.13 ± 0.039 and the relative viability (SW684; 0.04115 µM) was 1.1 ± 0.041. The relative viability (SW684; 0.1235 µM) was 1.11 ± 0.035, the relative viability (SW684; 0.3704 µM) was 1.15 ± 0.048 and the relative viability (SW684; 1.111 µM) was 1.14 ± 0.034. It also gave a relative viability (SW684; 3.333 µM) of 1.12 ± 0.056, a relative viability (SW684; 10 µM) of 1.08 ± 0.067 and a relative viability (A204; 0.00017 µM) of 1.07 ± 0.047. For the same compound, the relative viability (A204; 0.00051 µM) was 1.07 ± 0.011, the relative viability (A204; 0.00152 µM) was 1.06 ± 0.025 and the relative viability (A204; 0.00457 µM) was 1.09 ± 0.031. For the same compound, the relative viability (A204; 0.01372 µM) was 1.1 ± 0.049, the relative viability (A204; 0.04115 µM) was 1.09 ± 0.021 and the relative viability (A204; 0.1235 µM) was 1.07 ± 0.043. The relative viability (A204; 0.3704 µM) was 1.05 ± 0.041, the relative viability (A204; 1.111 µM) was 1.05 ± 0.055 and the relative viability (A204; 3.333 µM) was 1.02 ± 0.027. It also gave a relative viability (A204; 10 µM) of 0.872 ± 0.05, a relative viability (SK-ES-1; 0.00017 µM) of 0.978 ± 0.013 and a relative viability (SK-ES-1; 0.00051 µM) of 0.989 ± 0.053. It also gave a relative viability (SK-ES-1; 0.00152 µM) of 1.04 ± 0.011, a relative viability (SK-ES-1; 0.00457 µM) of 1.03 ± 0.026 and a relative viability (SK-ES-1; 0.01372 µM) of 0.996 ± 0.06. For the same compound, the relative viability (SK-ES-1; 0.04115 µM) was 0.998 ± 0.017, the relative viability (SK-ES-1; 0.1235 µM) was 0.999 ± 0.036 and the relative viability (SK-ES-1; 0.3704 µM) was 1.02 ± 0.017. For the same compound, the relative viability (SK-ES-1; 1.111 µM) was 1.012 ± 0.0078, the relative viability (SK-ES-1; 3.333 µM) was 1.02 ± 0.035 and the relative viability (SK-ES-1; 10 µM) was 0.983 ± 0.022. It also gave a relative viability (G401; 0.00017 µM) of 0.98 ± 0.046, a relative viability (G401; 0.00051 µM) of 0.991 ± 0.016 and a relative viability (G401; 0.00152 µM) of 0.997 ± 0.028. The relative viability (G401; 0.00457 µM) was 1.02 ± 0.015, the relative viability (G401; 0.01372 µM) was 1.01 ± 0.039 and the relative viability (G401; 0.04115 µM) was 1.01 ± 0.064. For the same compound, the relative viability (G401; 0.1235 µM) was 0.985 ± 0.019, the relative viability (G401; 0.3704 µM) was 0.996 ± 0.053 and the relative viability (G401; 1.111 µM) was 1.02 ± 0.024. It also gave a relative viability (G401; 3.333 µM) of 0.997 ± 0.036, a relative viability (G401; 10 µM) of 0.917 ± 0.016 and a relative viability (SK-LMS-1; 0.00017 µM) of 1 ± 0.057. For the same compound, the relative viability (SK-LMS-1; 0.00051 µM) was 1.01 ± 0.032, the relative viability (SK-LMS-1; 0.00152 µM) was 1.03 ± 0.06 and the relative viability (SK-LMS-1; 0.00457 µM) was 1.04 ± 0.024. It also gave a relative viability (SK-LMS-1; 0.01372 µM) of 1.04 ± 0.02, a relative viability (SK-LMS-1; 0.04115 µM) of 1 ± 0.054 and a relative viability (SK-LMS-1; 0.1235 µM) of 1.03 ± 0.058. It also gave a relative viability (SK-LMS-1; 0.3704 µM) of 1.04 ± 0.049, a relative viability (SK-LMS-1; 1.111 µM) of 1.06 ± 0.014 and a relative viability (SK-LMS-1; 3.333 µM) of 1.03 ± 0.047. The relative viability (SK-LMS-1; 10 µM) was 0.944 ± 0.03, the relative viability (HS729; 0.00017 µM) was 0.88 ± 0.064 and the relative viability (HS729; 0.00051 µM) was 0.865 ± 0.043. For the same compound, the relative viability (HS729; 0.00152 µM) was 0.903 ± 0.017, the relative viability (HS729; 0.00457 µM) was 0.941 ± 0.0097 and the relative viability (HS729; 0.01372 µM) was 0.866 ± 0.082. It also gave a relative viability (HS729; 0.04115 µM) of 0.877 ± 0.032, a relative viability (HS729; 0.1235 µM) of 0.894 ± 0.059 and a relative viability (HS729; 0.3704 µM) of 0.868 ± 0.031. For the same compound, the relative viability (HS729; 1.111 µM) was 0.889 ± 0.03, the relative viability (HS729; 3.333 µM) was 0.88 ± 0.044 and the relative viability (HS729; 10 µM) was 0.95 ± 0.011. The relative viability (SW872; 0.00017 µM) was 0.999 ± 0.085, the relative viability (SW872; 0.00051 µM) was 1.02 ± 0.068 and the relative viability (SW872; 0.00152 µM) was 1.01 ± 0.039. It also gave a relative viability (SW872; 0.00457 µM) of 1.01 ± 0.033, a relative viability (SW872; 0.01372 µM) of 0.975 ± 0.11 and a relative viability (SW872; 0.04115 µM) of 0.95 ± 0.023. It also gave a relative viability (SW872; 0.1235 µM) of 0.979 ± 0.052, a relative viability (SW872; 0.3704 µM) of 0.997 ± 0.018 and a relative viability (SW872; 1.111 µM) of 1.04 ± 0.013. For the same compound, the relative viability (SW872; 3.333 µM) was 1.03 ± 0.028, the relative viability (SW872; 10 µM) was 0.987 ± 0.056 and the relative viability (MES-SA; 0.00017 µM) was 0.914 ± 0.047. The relative viability (MES-SA; 0.00051 µM) was 0.905 ± 0.032, the relative viability (MES-SA; 0.00152 µM) was 0.937 ± 0.032 and the relative viability (MES-SA; 0.00457 µM) was 0.914 ± 0.028. For the same compound, the relative viability (MES-SA; 0.01372 µM) was 0.908 ± 0.033, the relative viability (MES-SA; 0.04115 µM) was 0.909 ± 0.021 and the relative viability (MES-SA; 0.1235 µM) was 0.912 ± 0.019. The relative viability (MES-SA; 0.3704 µM) was 0.926 ± 0.037, the relative viability (MES-SA; 1.111 µM) was 0.909 ± 0.051 and the relative viability (MES-SA; 3.333 µM) was 0.914 ± 0.02. It also gave a relative viability (MES-SA; 10 µM) of 0.907 ± 0.032, a relative viability (SYO-1; 0.00017 µM) of 0.958 ± 0.057 and a relative viability (SYO-1; 0.00051 µM) of 0.946 ± 0.04. The relative viability (SYO-1; 0.00152 µM) was 0.941 ± 0.031, the relative viability (SYO-1; 0.00457 µM) was 0.937 ± 0.042 and the relative viability (SYO-1; 0.01372 µM) was 0.945 ± 0.029. The relative viability (SYO-1; 0.04115 µM) was 0.932 ± 0.022, the relative viability (SYO-1; 0.1235 µM) was 0.94 ± 0.029 and the relative viability (SYO-1; 0.3704 µM) was 0.934 ± 0.043. It also gave a relative viability (SYO-1; 1.111 µM) of 0.928 ± 0.035, a relative viability (SYO-1; 3.333 µM) of 0.948 ± 0.039 and a relative viability (SYO-1; 10 µM) of 0.898 ± 0.055. The relative viability (SW1353; 0.00017 µM) was 0.974 ± 0.043, the relative viability (SW1353; 0.00051 µM) was 0.933 ± 0.03 and the relative viability (SW1353; 0.00152 µM) was 0.942 ± 0.018. The relative viability (SW1353; 0.00457 µM) was 0.946 ± 0.02, the relative viability (SW1353; 0.01372 µM) was 0.947 ± 0.021 and the relative viability (SW1353; 0.04115 µM) was 0.944 ± 0.032. For the same compound, the relative viability (SW1353; 0.1235 µM) was 0.957 ± 0.013, the relative viability (SW1353; 0.3704 µM) was 0.936 ± 0.039 and the relative viability (SW1353; 1.111 µM) was 0.962 ± 0.03. For the same compound, the relative viability (SW1353; 3.333 µM) was 0.8927 ± 0.0083, the relative viability (SW1353; 10 µM) was 0.827 ± 0.013 and the relative viability (SW982; 0.00017 µM) was 1.048 ± 0.0051. It also gave a relative viability (SW982; 0.00051 µM) of 1.037 ± 0.0048, a relative viability (SW982; 0.00152 µM) of 1.05 ± 0.029 and a relative viability (SW982; 0.00457 µM) of 1.05 ± 0.042. The relative viability (SW982; 0.01372 µM) was 1.05 ± 0.02, the relative viability (SW982; 0.04115 µM) was 1.034 ± 0.0066 and the relative viability (SW982; 0.1235 µM) was 1.02 ± 0.015. The relative viability (SW982; 0.3704 µM) was 1.02 ± 0.015, the relative viability (SW982; 1.111 µM) was 1.02 ± 0.016 and the relative viability (SW982; 3.333 µM) was 1.01 ± 0.053. The relative viability (SW982; 10 µM) was 0.955 ± 0.054, the relative viability (KHOS-240S; 0.00017 µM) was 1.06 ± 0.052 and the relative viability (KHOS-240S; 0.00051 µM) was 1.06 ± 0.05. The relative viability (KHOS-240S; 0.00152 µM) was 1.07 ± 0.068, the relative viability (KHOS-240S; 0.00457 µM) was 1.09 ± 0.076 and the relative viability (KHOS-240S; 0.01372 µM) was 1.06 ± 0.073. The relative viability (KHOS-240S; 0.04115 µM) was 1.06 ± 0.043, the relative viability (KHOS-240S; 0.1235 µM) was 1.03 ± 0.017 and the relative viability (KHOS-240S; 0.3704 µM) was 1.04 ± 0.034. The relative viability (KHOS-240S; 1.111 µM) was 1.041 ± 0.01, the relative viability (KHOS-240S; 3.333 µM) was 1.04 ± 0.022 and the relative viability (KHOS-240S; 10 µM) was 1.05 ± 0.023.
